Laboratory results from ChEMBL document CHEMBL4507291 (2021).

Assays:
[1] = target: Mitogen-activated protein kinase 4 (Homo sapiens) (UniProt P31152)
[2] = test system: Epidermal growth factor receptor (Homo sapiens), P00533 [UNDEFINED MUTATION]
[3] = target: Beta-2 adrenergic receptor (Homo sapiens) (UniProt P07550); details: Compound concentration 10.0 uM
[4] = target: Platelet-derived growth factor receptor beta (Homo sapiens) (UniProt P09619)
[5] = target: Phosphatidylinositol 4,5-bisphosphate 3-kinase catalytic subunit gamma isoform (Homo sapiens) (UniProt P48736)
[6] = target: T1, Serine/threonine-protein kinase 3 (Homo sapiens) (UniProt Q13188)
T1 sequence (whole entry): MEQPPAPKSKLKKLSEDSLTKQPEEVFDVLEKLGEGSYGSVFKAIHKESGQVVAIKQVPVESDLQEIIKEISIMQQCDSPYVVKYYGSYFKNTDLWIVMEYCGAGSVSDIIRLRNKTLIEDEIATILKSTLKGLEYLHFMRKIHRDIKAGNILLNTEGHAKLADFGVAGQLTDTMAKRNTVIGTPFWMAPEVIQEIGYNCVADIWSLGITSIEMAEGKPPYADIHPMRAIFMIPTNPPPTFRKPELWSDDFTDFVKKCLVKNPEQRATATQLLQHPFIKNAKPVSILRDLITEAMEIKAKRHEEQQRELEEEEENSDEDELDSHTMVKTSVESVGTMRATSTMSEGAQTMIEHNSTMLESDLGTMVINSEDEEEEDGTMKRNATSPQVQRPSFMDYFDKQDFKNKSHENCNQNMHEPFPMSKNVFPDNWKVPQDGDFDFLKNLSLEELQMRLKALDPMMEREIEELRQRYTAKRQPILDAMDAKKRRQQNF

[7] = target: T2, Tyrosine-protein kinase ITK/TSK (Homo sapiens) (UniProt Q08881)
T2 sequence (whole entry): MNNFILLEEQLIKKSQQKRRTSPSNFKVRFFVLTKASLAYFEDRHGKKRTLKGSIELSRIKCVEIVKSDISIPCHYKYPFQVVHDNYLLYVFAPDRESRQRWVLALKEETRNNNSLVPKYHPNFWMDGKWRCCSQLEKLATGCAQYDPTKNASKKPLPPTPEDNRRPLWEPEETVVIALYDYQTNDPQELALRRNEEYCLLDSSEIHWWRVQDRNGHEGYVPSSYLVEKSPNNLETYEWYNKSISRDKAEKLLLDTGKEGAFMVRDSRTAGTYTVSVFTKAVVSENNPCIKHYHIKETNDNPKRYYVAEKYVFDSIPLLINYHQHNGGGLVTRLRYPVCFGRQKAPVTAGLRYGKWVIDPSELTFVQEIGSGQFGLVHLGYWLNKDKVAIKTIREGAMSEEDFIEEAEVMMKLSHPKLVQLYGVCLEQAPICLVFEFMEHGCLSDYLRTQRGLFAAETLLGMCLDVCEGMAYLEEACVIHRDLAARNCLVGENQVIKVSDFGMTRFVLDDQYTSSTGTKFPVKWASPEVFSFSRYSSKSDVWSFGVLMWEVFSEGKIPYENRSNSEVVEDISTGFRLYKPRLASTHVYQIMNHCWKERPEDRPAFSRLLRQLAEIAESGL

[8] = target: AP2-associated protein kinase 1 (Homo sapiens) (UniProt Q2M2I8)
[9] = target: T3, TGF-beta receptor type-1 (Homo sapiens) (UniProt P36897)
T3 sequence (whole entry): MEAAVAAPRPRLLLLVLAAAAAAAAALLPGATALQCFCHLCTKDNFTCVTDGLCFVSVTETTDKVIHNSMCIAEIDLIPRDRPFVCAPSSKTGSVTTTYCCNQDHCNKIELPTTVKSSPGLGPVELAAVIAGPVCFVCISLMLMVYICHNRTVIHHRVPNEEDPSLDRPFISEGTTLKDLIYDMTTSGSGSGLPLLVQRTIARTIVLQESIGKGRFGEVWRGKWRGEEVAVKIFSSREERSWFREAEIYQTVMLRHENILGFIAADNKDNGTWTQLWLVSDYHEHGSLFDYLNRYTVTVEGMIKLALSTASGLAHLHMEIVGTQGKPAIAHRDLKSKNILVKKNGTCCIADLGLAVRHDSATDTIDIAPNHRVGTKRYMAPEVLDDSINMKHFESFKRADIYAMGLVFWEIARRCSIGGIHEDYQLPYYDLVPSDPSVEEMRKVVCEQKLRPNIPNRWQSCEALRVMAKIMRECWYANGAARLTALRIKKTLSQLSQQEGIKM

[10] = target: T4, Mitogen-activated protein kinase kinase kinase kinase 2 (Homo sapiens) (UniProt Q12851)
T4 sequence (whole entry): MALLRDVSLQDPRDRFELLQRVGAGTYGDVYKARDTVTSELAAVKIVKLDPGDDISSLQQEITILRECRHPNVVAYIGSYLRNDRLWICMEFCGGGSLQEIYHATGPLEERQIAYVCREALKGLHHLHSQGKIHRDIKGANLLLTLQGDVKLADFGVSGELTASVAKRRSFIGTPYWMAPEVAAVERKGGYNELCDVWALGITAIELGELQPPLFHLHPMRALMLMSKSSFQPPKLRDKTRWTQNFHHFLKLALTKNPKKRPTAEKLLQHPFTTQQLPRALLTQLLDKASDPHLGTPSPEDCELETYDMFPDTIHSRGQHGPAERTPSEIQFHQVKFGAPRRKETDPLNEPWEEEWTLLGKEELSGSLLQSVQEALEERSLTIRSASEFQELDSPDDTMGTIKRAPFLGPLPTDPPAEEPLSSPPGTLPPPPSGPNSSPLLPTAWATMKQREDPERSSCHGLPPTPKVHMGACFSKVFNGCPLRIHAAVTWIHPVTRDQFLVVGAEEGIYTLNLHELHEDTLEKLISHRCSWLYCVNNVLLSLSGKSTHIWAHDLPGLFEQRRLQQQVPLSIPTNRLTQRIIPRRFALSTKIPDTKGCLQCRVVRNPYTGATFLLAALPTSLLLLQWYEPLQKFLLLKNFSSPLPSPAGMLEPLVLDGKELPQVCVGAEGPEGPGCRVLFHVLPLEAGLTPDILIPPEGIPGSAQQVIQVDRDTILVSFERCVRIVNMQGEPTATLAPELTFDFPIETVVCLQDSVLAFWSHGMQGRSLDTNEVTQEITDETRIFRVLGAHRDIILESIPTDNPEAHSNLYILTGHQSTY

[11] = target: Mitogen-activated protein kinase kinase kinase 14 (Homo sapiens) (UniProt Q99558)
[12] = target: Receptor-interacting serine/threonine-protein kinase 2 (Homo sapiens) (UniProt O43353)
[13] = Compound concentration 100.0 nM
[14] = Compound concentration 1000.0 nM

Epidermal growth factor receptor (Homo sapiens), P00533 [UNDEFINED MUTATION], sequence (P00533 whole entry, looked up, change not shown): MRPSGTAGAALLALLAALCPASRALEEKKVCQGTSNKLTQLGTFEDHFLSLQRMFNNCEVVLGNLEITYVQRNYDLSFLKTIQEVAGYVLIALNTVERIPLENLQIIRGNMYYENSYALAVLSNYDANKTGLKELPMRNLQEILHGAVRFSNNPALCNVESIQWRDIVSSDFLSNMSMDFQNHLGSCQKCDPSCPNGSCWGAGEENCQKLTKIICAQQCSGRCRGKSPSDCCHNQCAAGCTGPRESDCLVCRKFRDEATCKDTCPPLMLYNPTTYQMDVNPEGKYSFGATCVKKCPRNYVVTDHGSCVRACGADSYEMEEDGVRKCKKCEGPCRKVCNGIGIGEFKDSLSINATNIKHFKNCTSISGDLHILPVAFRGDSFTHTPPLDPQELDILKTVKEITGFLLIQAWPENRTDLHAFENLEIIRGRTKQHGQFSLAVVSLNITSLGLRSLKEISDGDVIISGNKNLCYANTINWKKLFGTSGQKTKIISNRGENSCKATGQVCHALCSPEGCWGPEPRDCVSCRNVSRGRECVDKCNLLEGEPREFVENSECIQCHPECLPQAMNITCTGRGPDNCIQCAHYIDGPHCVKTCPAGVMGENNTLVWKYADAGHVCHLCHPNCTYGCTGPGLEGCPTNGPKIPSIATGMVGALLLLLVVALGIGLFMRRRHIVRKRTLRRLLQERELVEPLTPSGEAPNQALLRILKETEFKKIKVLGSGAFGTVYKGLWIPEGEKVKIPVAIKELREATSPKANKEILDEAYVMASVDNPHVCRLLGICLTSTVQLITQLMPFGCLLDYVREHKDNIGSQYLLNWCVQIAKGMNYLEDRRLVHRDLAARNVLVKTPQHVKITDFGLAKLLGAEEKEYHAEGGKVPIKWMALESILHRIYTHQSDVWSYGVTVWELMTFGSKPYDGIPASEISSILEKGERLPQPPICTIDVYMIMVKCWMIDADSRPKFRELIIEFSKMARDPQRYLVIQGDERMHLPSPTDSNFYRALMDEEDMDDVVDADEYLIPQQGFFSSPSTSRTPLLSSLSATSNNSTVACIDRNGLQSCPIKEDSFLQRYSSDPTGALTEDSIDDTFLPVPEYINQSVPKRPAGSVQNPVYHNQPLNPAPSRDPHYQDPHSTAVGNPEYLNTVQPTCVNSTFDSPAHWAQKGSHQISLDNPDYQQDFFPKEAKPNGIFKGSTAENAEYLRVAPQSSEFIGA
Platelet-derived growth factor receptor beta (Homo sapiens), sequence (P09619 whole entry, canonical isoform): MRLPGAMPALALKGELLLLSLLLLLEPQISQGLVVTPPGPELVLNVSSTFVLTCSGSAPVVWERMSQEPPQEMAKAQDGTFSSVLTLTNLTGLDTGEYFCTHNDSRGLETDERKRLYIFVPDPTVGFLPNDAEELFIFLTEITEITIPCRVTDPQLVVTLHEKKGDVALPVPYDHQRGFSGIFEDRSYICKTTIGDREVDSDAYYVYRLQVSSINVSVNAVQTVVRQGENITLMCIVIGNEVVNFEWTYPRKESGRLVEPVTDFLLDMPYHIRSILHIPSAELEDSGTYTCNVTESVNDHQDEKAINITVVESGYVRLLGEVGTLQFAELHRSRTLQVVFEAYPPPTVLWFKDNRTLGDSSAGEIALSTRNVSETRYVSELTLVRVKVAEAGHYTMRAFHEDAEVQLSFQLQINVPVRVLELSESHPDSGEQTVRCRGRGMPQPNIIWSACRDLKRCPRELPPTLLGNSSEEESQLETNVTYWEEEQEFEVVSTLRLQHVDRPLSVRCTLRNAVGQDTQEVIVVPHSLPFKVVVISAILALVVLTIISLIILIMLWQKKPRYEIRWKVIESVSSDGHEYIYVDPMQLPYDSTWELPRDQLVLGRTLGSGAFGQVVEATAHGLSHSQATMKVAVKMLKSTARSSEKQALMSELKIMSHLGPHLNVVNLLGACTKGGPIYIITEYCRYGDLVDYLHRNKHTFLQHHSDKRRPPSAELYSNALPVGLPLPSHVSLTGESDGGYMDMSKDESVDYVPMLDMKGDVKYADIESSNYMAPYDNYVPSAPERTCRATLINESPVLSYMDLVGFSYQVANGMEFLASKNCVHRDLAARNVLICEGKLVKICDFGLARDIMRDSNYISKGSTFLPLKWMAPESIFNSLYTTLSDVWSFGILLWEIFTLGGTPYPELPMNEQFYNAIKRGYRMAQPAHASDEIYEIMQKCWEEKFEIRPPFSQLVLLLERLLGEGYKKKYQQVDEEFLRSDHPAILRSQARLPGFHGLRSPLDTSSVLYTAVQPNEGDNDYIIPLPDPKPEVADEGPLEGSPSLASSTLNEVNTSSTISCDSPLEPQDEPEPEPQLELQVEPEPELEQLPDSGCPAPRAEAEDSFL
Mitogen-activated protein kinase kinase kinase 14 (Homo sapiens), sequence (Q99558 whole entry, looked up): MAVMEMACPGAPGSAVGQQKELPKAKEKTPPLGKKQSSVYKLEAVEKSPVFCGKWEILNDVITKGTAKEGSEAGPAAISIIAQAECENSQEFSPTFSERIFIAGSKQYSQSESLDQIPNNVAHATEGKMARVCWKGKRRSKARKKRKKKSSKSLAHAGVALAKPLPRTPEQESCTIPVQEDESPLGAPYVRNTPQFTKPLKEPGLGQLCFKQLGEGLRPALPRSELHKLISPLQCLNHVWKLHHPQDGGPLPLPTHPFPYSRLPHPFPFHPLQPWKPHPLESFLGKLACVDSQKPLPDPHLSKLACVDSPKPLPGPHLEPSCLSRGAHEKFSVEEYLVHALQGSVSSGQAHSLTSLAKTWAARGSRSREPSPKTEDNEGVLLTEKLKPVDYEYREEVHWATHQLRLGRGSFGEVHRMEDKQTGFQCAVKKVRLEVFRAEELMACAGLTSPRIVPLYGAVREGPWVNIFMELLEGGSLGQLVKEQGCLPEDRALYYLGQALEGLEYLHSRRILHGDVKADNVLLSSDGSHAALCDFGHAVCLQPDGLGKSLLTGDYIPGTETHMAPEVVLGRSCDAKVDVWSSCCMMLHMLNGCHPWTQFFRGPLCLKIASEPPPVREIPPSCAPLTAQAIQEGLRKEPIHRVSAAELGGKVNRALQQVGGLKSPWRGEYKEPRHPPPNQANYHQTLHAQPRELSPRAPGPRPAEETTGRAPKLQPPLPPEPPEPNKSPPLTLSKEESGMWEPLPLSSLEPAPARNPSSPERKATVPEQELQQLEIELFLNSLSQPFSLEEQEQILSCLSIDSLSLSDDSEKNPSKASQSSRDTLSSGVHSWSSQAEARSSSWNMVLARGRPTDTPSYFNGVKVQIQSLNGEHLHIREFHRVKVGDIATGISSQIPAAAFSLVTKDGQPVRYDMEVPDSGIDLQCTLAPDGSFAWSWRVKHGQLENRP
AP2-associated protein kinase 1 (Homo sapiens), sequence (Q2M2I8 whole entry, looked up): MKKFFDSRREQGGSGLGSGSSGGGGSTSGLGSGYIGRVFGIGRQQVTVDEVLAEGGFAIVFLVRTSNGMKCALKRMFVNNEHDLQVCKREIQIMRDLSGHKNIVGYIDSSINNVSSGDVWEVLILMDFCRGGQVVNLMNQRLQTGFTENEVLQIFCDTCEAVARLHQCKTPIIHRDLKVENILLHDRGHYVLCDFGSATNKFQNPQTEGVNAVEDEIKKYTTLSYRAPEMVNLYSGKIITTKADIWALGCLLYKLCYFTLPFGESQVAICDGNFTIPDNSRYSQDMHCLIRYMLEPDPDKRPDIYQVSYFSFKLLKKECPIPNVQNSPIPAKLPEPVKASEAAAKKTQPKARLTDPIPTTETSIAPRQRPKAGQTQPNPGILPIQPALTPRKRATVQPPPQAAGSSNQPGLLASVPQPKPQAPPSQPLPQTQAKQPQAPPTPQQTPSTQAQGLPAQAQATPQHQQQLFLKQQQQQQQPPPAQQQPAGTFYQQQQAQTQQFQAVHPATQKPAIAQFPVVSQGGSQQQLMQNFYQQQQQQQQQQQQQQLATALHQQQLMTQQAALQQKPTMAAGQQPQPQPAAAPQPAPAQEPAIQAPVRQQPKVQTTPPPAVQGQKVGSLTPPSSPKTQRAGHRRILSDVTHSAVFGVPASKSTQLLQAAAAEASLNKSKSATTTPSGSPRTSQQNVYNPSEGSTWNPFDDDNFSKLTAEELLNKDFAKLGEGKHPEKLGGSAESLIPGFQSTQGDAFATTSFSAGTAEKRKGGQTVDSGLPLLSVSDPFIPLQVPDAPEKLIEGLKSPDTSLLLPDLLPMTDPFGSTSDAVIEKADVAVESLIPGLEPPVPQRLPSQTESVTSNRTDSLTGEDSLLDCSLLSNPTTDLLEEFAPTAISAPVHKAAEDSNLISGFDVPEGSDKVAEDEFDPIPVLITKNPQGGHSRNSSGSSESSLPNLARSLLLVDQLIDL
Receptor-interacting serine/threonine-protein kinase 2 (Homo sapiens), sequence (O43353 whole entry): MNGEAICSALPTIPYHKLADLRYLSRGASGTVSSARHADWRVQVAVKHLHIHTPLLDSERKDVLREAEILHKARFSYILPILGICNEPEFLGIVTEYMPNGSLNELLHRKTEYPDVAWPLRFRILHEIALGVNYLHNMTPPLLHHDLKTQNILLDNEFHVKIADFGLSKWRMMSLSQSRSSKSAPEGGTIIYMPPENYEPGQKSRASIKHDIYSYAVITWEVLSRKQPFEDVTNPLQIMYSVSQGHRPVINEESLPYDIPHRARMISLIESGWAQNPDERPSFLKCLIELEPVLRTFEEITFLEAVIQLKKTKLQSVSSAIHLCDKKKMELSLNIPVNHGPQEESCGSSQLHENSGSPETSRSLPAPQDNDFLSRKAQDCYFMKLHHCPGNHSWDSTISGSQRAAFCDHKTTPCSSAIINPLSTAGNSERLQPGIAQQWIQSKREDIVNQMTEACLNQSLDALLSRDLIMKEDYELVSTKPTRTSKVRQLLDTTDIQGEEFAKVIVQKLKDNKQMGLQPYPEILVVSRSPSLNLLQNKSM

C[C@@H]1CN(c2cc(-c3n[nH]c4ccc(OC5(C)CC5)cc34)ncn2)C[C@H](C)O1 [MLi-2]
inactive: residual activity [1, 13] 83% | residual activity [2, 13] 51% | inhibition [3] 26.4% | residual activity [4, 13] 73% | residual activity [5, 13] 72% | residual activity [6, 13] 78% | residual activity [7, 13] 87% | residual activity [8, 13] 100% | residual activity [9, 13] 100% | residual activity [10, 13] 76% | residual activity [11, 13] 64% | residual activity [12, 13] 100%

C[C@@H]1CN(c2cc(-c3nn(C)c4ccc(OC5(C)CC5)cc34)ncn2)C[C@H](C)O1 [MLi-2-NC]
inactive: residual activity [1, 14] 93% | residual activity [2, 14] 100% | inhibition [3] 13.8% | residual activity [4, 14] 100% | residual activity [5, 14] 100% | residual activity [6, 14] 100% | residual activity [7, 14] 96% | residual activity [8, 14] 84% | residual activity [9, 14] 89% | residual activity [10, 14] 81% | residual activity [11, 14] 100% | residual activity [12, 14] 100%
